Test results taken from patent publication US20230407373A1 (priority 2020, published 2023).
Like-named read-outs stand apart in the source and are kept apart here.

Columns and labels:
Type in all cases: binding
[1] = tested on: SARS-CoV-2 gRNA and sgRNAs; conditions: for target (unweighted spectral count in RNP capture): Probe II capture, LC-MS/MS LFQ; for background (unweighted spectral count in control): no-probe control pull-down, used as background for Probe II; for target (unweighted spectral count of the protein in the RNP capture experiment): LC-MS/MS label-free quantification, probe pool not given; for back-ground (unweighted spectral count of the protein in the control experiment): protein background of the control (e.g. no-probe) experiment
[2] = tested on: HCoV-OC43 gRNA and sgRNA; conditions: for target (unweighted spectral count, OC43 Probe II capture) / target (unweighted spectral count): tested against no-probe control; for target (unweighted spectral count, OC43 Probe II capture): FDR<10%; for target (unweighted spectral count): OC43 Probe II, infected cells; for target (unweighted spectral count, OC43 Probe II) / background (unweighted spectral count, no-probe control): type n_48_v, 48 hpi; for target (unweighted spectral count, OC43 Probe II): OC43 Probe II capture on infected cells; for background (unweighted spectral count, no-probe control): no-probe control on infected cells; for target (spectral count) / background (spectral count): type s_36_m, Probe II; for target (spectral count): HCoV-OC43-infected HCT-8 cells; for background (spectral count): uninfected-probe control
[3] = tested on: gRNA of HCoV-OC43; conditions: for target (spectral count) / background (spectral count): type g_36_m, 36 hpi, Probe I; for target (spectral count): HCoV-OC43-infected HCT-8 cells; for background (spectral count): uninfected-probe control
[4] = type n_48_v: 48 hours post-infection, infected cells, OC43 Probe I, unweighted spectral count
[5] = type n_48_v: 48 hours post-infection, no-probe control on infected cells

For LARP4, the “target (unweighted spectral count in RNP capture)” value [1] was 10, the “background (unweighted spectral count in control)” value [1] was 1 and the “target (unweighted spectral count, OC43 Probe II capture)” value ([2]; 36 hpi, type n_36_v) was 4.
In the case of LARP4B, the “target (unweighted spectral count of the protein in the RNP capture experiment)” value [1] is reported as 6, the “back-ground (unweighted spectral count of the protein in the control experiment)” value (from here on “back-ground”) [1] is reported as 1 and the “target (unweighted spectral count)” value ([2]; 24 hpi (type n_24_v)) is reported as 6. For the same substance, the “target (unweighted spectral count, OC43 Probe II)” value [2] was 6 and the “background (unweighted spectral count, no-probe control)” value [2] was 1.
With LGALS3 the “target (unweighted spectral count, OC43 Probe II)” value [2] was 5 and the “background (unweighted spectral count, no-probe control)” value [2] was 1.
LSM14A was tested, and the “target (unweighted spectral count in RNP capture)” value [1] was 8 and the “background (unweighted spectral count in control)” value [1] was 1.
With MPG the “target (unweighted spectral count)” value ([2]; 12 hpi (type n_12_v)) was 4.
With MYH9 the “target (unweighted spectral count of the protein in the RNP capture experiment)” value [1] was 9, the “back-ground” value [1] was 2 and the “target (unweighted spectral count, OC43 Probe II capture)” value ([2]; 24 hpi, type n_24_v) was 6. The “target (unweighted spectral count, OC43 Probe II)” value [2] was 9 and the “background (unweighted spectral count, no-probe control)” value [2] was 1.
In the case of NSP8, the “background (spectral count, no-probe control)” value [3] is reported as 1 and the “target (spectral count, OC43 Probe I RNP capture)” value [3] is reported as 5.
In the case of NUMA1, the “target (unweighted spectral count)” value ([2]; 12 hpi (type n_12_v)) is reported as 5.
With PLEC the “target (unweighted spectral count, OC43 Probe II)” value [2] was 6 and the “background (unweighted spectral count, no-probe control)” value [2] was 1.
In the case of PPP1CA, the “target (unweighted spectral count, OC43 Probe II capture)” value ([2]; 36 hpi, type n_36_v) is reported as 4.
With PRPF8 the “target (unweighted spectral count, OC43 Probe II capture)” value ([2]; 24 hpi, type n_24_v) was 7, the “target (unweighted spectral count, OC43 Probe II)” value [2] was 20 and the “background (unweighted spectral count, no-probe control)” value [2] was 5.
In the case of PRRC2A: host protein, UniProt P48634, the “target (spectral count)” value [3] is reported as 12, the “background (spectral count)” value [3] is reported as 1 and the “target (spectral count, OC43 Probe I RNP capture)” value [3, 4] is reported as 9. For the same substance, the “background (spectral count, no-probe control)” value [3, 5] was 1, the “target (unweighted spectral count, OC43 Probe II capture)” value ([2]; 36 hpi, type n_36_v) was 10 and the “target (unweighted spectral count)” value ([2]; 24 hpi (type n_24_v)) was 8. The “target (unweighted spectral count, OC43 Probe II)” value [2] was 9 and the “background (unweighted spectral count, no-probe control)” value [2] was 1.
With RBPMS the “target (unweighted spectral count of the protein in the RNP capture experiment)” value [1] was 5 and the “back-ground” value [1] was 1.
RP22L1 was tested, and the “target (unweighted spectral count in RNP capture)” value [1] was 7 and the “background (unweighted spectral count in control)” value [1] was 1.
SNRNP70: host protein, UniProt P08621 was tested, and the “target (spectral count)” value [3] was 9, the “background (spectral count)” value [3] was 1 and the “target (unweighted spectral count, OC43 Probe II)” value [2] was 8. The “background (unweighted spectral count, no-probe control)” value [2] was 2.
In the case of SQSTM1: host protein, UniProt Q13501, the “target (unweighted spectral count in RNP capture)” value [1] is reported as 19, the “background (unweighted spectral count in control)” value [1] is reported as 1 and the “target (spectral count)” value [3] is reported as 7. For the same substance, the “background (spectral count)” value [3] was 1.
SSRP1 was tested, and the “target (unweighted spectral count, OC43 Probe II capture)” value ([2]; 24 hpi, type n_24_v) was 4.
With SUPT16H the “target (unweighted spectral count)” value ([2]; 12 hpi (type n_12_v)) was 4.
With TCP1 the “target (unweighted spectral count, OC43 Probe II capture)” value ([2]; 36 hpi, type n_36_v) was 4.
TUBB4B was tested, and the “target (unweighted spectral count of the protein in the RNP capture experiment)” value [1] was 6 and the “back-ground” value [1] was 1.
In the case of USP10, the “target (spectral count, OC43 Probe I RNP capture)” value [3, 4] is reported as 6, the “background (spectral count, no-probe control)” value [3, 5] is reported as 1 and the “target (unweighted spectral count, OC43 Probe II capture)” value ([2]; 24 hpi, type n_24_v) is reported as 5. For the same substance, the “target (unweighted spectral count, OC43 Probe II capture)” value ([2]; 36 hpi, type n_36_v) was 4, the “target (unweighted spectral count, OC43 Probe II)” value [2] was 7 and the “background (unweighted spectral count, no-probe control)” value [2] was 1.
XRCC5: host protein, UniProt P13010 was tested, and the “target (spectral count)” value [3] was 8, the “background (spectral count)” value [3] was 1 and the “target (spectral count, OC43 Probe I RNP capture)” value [3, 4] was 10. The “background (spectral count, no-probe control)” value [3, 5] was 1, the “target (unweighted spectral count, OC43 Probe II capture)” value ([2]; 36 hpi, type n_36_v) was 7 and the “target (unweighted spectral count, OC43 Probe II)” value [2] was 12. For the same substance, the “background (unweighted spectral count, no-probe control)” value [2] was 1, the “target (spectral count)” value ([2]; 36 hpi) was 7 and the “background (spectral count)” value ([2]; 36 hpi) was 1.
In the case of YBX2: host protein, UniProt Q9Y2T7, the “target (unweighted spectral count, OC43 Probe II capture)” value ([2]; 36 hpi, type n_36_v) is reported as 9, the “target (unweighted spectral count, OC43 Probe II)” value [2] is reported as 8 and the “background (unweighted spectral count, no-probe control)” value [2] is reported as 1. The “target (spectral count)” value ([2]; 36 hpi) was 9 and the “background (spectral count)” value ([2]; 36 hpi) was 1.
With ZC3H7B the “target (unweighted spectral count)” value ([2]; 24 hpi (type n_24_v)) was 6.
ZFR was tested, and the “target (unweighted spectral count, OC43 Probe II capture)” value ([2]; 24 hpi, type n_24_v) was 4, the “target (unweighted spectral count, OC43 Probe II)” value [2] was 6 and the “background (unweighted spectral count, no-probe control)” value [2] was 1.
